Data set [1] is described as follows: pH of 50 mM sodium phosphate buffer after adding TPA. The settings on record: TPA 4 g/L in 50 mM sodium phosphate buffer (pH 8). In kind it is physicochemical. The method, then:
Based on the defined enzyme input amounts, a hydrolase reaction was performed using the product of PET glycolysis, in which betaine was used, as a substrate. Accordingly, the efficient input amounts of the IsPETase^Mut and IsMHETase^Mut enzymes relative to substrates were to be confirmed without wasting the enzymes. The reaction conditions included a PET glycolysis product including 10 g/L of BHET as a substrate, 50 mM sodium phosphate buffer (pH 8), and a volume of 500 μL. After the reaction was performed at 40° C. for 6 hours, 30 min, 1 hr, 3 hr, and 6 hr, samples were diluted in methanol and centrifuged at 25,188 g for 10 minutes, and followed by analyzing the supernatant through high performance liquid chromatography (HPLC). As a result, in FIG. 6c, when the enzyme input amounts are 2.3 U/L and 4.5 U/L, compared to 9.0 U/L, it was confirmed that the amount of the product TPA is low. As the reaction progressed, it was expected that the pH was lowered and the enzyme activity was lost due to the influence of the product TPA. First, to confirm how low the pH is under the enzymatic hydrolysis reaction conditions due to the influence of TPA, TPA was added at a concentration of 0 to 10 g/L under the condition of 50 mM sodium phosphate buffer (pH 8). As a result, in FIG. 6d, the pHs of all samples were measured with a pH meter and visually confirmed with pH paper. […]

The target in the next data set is T1, IsMHETase^Mut (Piscinibacter sakaiensis, UniProt A0A0K8P8E7, W397A).
T1 construct: His tag (pET28a vector) (N); made in house; host or cells: E. coli BL21(DE3)
The data set is described as follows: Inhibitory effect of catalysts on IsMHETase^Mut enzyme reaction. The note with it: 1 mM; enzyme 2.3 U/L; substrate MHET; 50 mM sodium phosphate buffer (pH 8); 40 °C, 15 minutes. In kind it is biochemical, Ideonella sakaiensis. The procedure:
(§1) To confirm whether the metal catalysts used in conventional PET glycolysis and betaine, which is an eco-friendly catalyst selected in this study, can have inhibitory effects on enzymatic hydrolysis, IsPETase^Mut and IsMHETase^Mut enzyme experiments were performed using 1 mM each of betaine, Ca^2+, Co^2+, Cu^2+, Fe^2+, Mg^2+, Mn^2+, Ni^2+, pb^2+, Zn^2+, and Li^+. The experiments were performed under conditions including an enzyme concentration of 2.3 U/L, 2.5 mg each of the substrates BHET and MHET, 50 mM sodium phosphate buffer (pH 8), and a volume of 500 μL. After performing the reaction at 40° C. for 15 minutes, all samples were diluted in methanol and centrifuged at 25,188 g for 10 minutes, followed by analyzing the supernatant through high performance liquid chromatography (HPLC). […] Therefore, the product of PET glycolysis using betaine may be used in enzymatic hydrolysis.

A further data set has as its target T2, IsPETase^Mut (Piscinibacter sakaiensis, UniProt A0A0K8P6T7, D186H/R280A/S121E).
T2 construct: His tag (pET28a vector) (N); made in house; host or cells: E. coli BL21(DE3)
Kind of data set: Inhibitory effect of catalysts on IsPETase^Mut enzyme reaction. The note with it: 1 mM; enzyme 2.3 U/L; substrate BHET; 50 mM sodium phosphate buffer (pH 8); 40 °C, 15 minutes. Type of data set: biochemical, Ideonella sakaiensis. The procedure: as §1

Data set [2] in a line: PET glycolysis in EG with catalyst (microwave). The note with it: 190 °C. The procedure:
To establish an economical and efficient PET upcycling process, a chemical PET depolymerization process is required. […] A conventional PET glycolysis method mainly used a heavy metal catalyst. The use of a metal catalyst may have an adverse effect on the biological process of the integrated process and have adverse environmental effects, so glycolysis was performed in a microwave digestion system using betaine instead of a metal catalyst. Specifically, 3.5 to 11.5 g of granular PET and a specific amount of EG were reacted using betaine as a catalyst at 190° C. for 30 to 120 minutes. To maintain the reaction conditions, a microwave digester (Milestone, Shelton, CT) with a thermocouple and magnetic stirrer function was used, and the reaction was performed in a 100 mL reaction vessel for exclusive use of a microwave digester.
To determine the glycolysis effect of betaine, first, the input amount of a substrate was optimized. Glycolysis was performed at 190° C. for 30 minutes by adding 0.5% (catalyst/PET, w/w ratio) betaine to a PET substrate and an EG solvent at a molar ratio (PET:EG) of 1:3, 1:4, 1:5, 1:6, 1:10, or 1:20. Here, the major product BHET and a by-product MHET were produced. The BHET and MHET concentrations were measured by liquid chromatography. As a result, it was confirmed that the highest yield was obtained under a substrate input condition corresponding to a PET:EG molar ratio of 1:5. However, considering the concentration of the final product, it was confirmed that the yield was even higher under the substrate input condition corresponding to the PET:EG molar ratio of 1:4. […] Accordingly, the substrate input condition corresponding to a PET:EG molar ratio of 1:4 was selected, and further conditions were established (Table 2).
To confirm the catalytic effect on the input amount of betaine, betaine corresponding to 0, 0.1, 0.5, 1% (catalyst/PET, w/w ratio) was added, and glycolysis was performed at 190° C. for 30 minutes. As a result, it was confirmed that the condition of adding betaine corresponding to 0.5% (catalyst/PET, w/w ratio) is optimal. Accordingly, this condition was selected, and further conditions were established (Table 2)
Next, to confirm the effect by glycolysis reaction time, the reaction was performed at 190° C. under various reaction time conditions of 30, 60, 90, and 120 minutes. As a result, it was confirmed that 60 minutes is the optimal condition. […] Afterward, in a biological process, the PET glycolysis product that had been produced under the above conditions was used as a substrate (Table 2). […]
To analyze a PET glycolysis product using betaine as a catalyst, high performance liquid chromatography (HPLC) analysis was performed. HPLC analysis conditions are as follows. As a column, a C18 column (OpitmaPak C18-51001546, 5 μm, 150 mm×4.6 mm) was used, and a column temperature was maintained at 25° C. during the analysis. Two mobile phases, A and B, were used, wherein A is 0.1% trifluoroacetic acid in distilled water, and B is methanol. During the analysis at a flow rate of 1 mL/min for 27 minutes, the proportion of the mobile phase B was maintained at 5% at 0 to 2 minutes, and the proportion of the mobile phase B was changed from 5 to 57% at 2 to 18 minutes. At 18 to 22 minutes, the proportion of the mobile phase B was changed from 57 to 5%. Finally, at 22 to 27 minutes, the proportion of the mobile phase B was maintained at 5%. Chromatography was performed at a wavelength of 254 nm using a UV/Vis detector.

The conditions of data set [3]: PET film; pH 7.0; 30 °C; 18 h; Yoshida et al.; cited from earlier work.
Where [4] appears, read: PET/EG 1:3, catalyst/PET 0.5 wt %, 30 min.
Where [5] appears, read: PET/EG 1:4, catalyst/PET 0.1 wt %, 30 min.
[6] abbreviates: PET/EG 1:4, catalyst/PET 0.5 wt %, 30 min.
Setting [7] is: PET/EG 1:4, catalyst/PET 0.5 wt %, 60 min.
Setting [8] is: PET/EG 1:4, catalyst/PET 0.5 wt %, 90 min.
Where [9] appears, read: PET/EG 1:4, catalyst/PET 0.5 wt %, 120 min.
Where [10] appears, read: PET/EG 1:4, catalyst/PET 1 wt %, 30 min.
The mark [11] stands for this setting: PET/EG 1:5, catalyst/PET 0.5 wt %, 30 min.
Setting [12] is: PET/EG 1:6, catalyst/PET 0.5 wt %, 30 min.
[13] abbreviates: PET/EG 1:10, catalyst/PET 0.5 wt %, 30 min.
[14] abbreviates: PET/EG 1:20, catalyst/PET 0.5 wt %, 30 min.

T1 sequence (A0A0K8P8E7 other isoform, or with tags, fused parts or gaps W397A): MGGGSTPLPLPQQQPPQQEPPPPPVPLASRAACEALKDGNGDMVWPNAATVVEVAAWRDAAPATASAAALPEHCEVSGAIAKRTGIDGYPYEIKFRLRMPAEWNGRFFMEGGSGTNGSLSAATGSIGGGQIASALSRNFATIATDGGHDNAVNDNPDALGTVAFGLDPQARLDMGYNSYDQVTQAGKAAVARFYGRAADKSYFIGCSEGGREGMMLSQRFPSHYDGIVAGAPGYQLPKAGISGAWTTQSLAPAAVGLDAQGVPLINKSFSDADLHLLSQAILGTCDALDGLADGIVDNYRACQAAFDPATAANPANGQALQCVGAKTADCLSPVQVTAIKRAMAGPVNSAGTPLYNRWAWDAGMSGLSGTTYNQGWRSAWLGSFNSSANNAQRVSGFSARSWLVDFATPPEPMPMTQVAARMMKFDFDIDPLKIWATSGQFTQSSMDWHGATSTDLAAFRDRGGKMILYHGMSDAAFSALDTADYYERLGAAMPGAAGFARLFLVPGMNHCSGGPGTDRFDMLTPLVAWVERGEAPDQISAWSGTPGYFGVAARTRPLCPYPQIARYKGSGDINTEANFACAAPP
T2 sequence (A0A0K8P6T7 other isoform, or with tags, fused parts or gaps S121E/D186H/R280A): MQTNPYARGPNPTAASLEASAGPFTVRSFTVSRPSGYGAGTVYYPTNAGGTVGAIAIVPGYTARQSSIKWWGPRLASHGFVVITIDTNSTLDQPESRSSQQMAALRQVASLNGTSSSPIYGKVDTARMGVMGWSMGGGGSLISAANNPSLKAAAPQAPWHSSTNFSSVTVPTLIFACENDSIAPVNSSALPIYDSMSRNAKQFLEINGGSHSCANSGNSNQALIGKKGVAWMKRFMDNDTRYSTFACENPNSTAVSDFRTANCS

In data set [1], `O=C(O)c1ccc(C(=O)O)cc1` [TPA, terephthalic acid] displayed a pH of 5.47.
As for `C[N+](C)(C)CC(=O)O` [betaine], the “inhibitory effect on IsMHETase^Mut enzyme reaction” value at IsMHETase^Mut is “no inhibitory effect”. Moreover, the “inhibitory effect on IsPETase^Mut enzyme reaction” value at IsPETase^Mut was “no inhibitory effect”. For the same molecule, the “collective yield of BHET and MHET” value came to 34.6% in data set [2] (setting [4]); 26.6% in data set [2] (setting [5]); 52.3% in data set [2] (setting [6]); 58.7% in data set [2] (setting [7]); 55.1% in data set [2] (setting [8]); 53.8% in data set [2] (setting [9]). The “collective yield of BHET and MHET” value in data set [2] (setting [10]) was found to be 42.4%; in data set [2] (setting [11]), 52.7%; in data set [2] (setting [12]), 51.6%; in data set [2] (setting [13]) it was 49.8%; in data set [2] (setting [14]) it was 37.2%. Also, the “titer of BHET” value turned out to be 256.8 g/L in data set [2] (setting [4]); 185.3 g/L in data set [2] (setting [5]); 330.6 g/L in data set [2] (setting [6]); 368.6 g/L in data set [2] (setting [7]); 341.2 g/L in data set [2] (setting [8]); 313.8 g/L in data set [2] (setting [9]). Further, the “titer of BHET” value in data set [2] (setting [10]) is on record as 286.9 g/L; in data set [2] (setting [11]), 307.6 g/L; in data set [2] (setting [12]), 268.3 g/L; in data set [2] (setting [13]), 189.8 g/L; in data set [2] (setting [14]) it was 81.3 g/L. In addition, the “titer of MHET” value in data set [2] (setting [4]) amounted to 24.9 g/L; in data set [2] (setting [6]), 27.6 g/L; in data set [2] (setting [7]), 32.8 g/L; in data set [2] (setting [8]) it was 35.1 g/L; in data set [2] (setting [9]), 50.4 g/L; in data set [2] (setting [10]), 6.8 g/L. Also, the “titer of MHET” value is 21.6 g/L in data set [2] (setting [11]), 19.1 g/L in data set [2] (setting [12]), 6.7 g/L in data set [2] (setting [13]) and 2.9 g/L in data set [2] (setting [14]).
With `C1CN=C2NCCCN2C1` [TBD, 1,5,7-triazabicyclo[4.4.0]dec-5-ene, reference compound], in data set [2] (setting [7]), the “collective yield of BHET and MHET” value is on record as 55.1%; the “titer of BHET” value amounted to 328.4 g/L; the “titer of MHET” value amounted to 45.9 g/L.

B1: /sPETase^Wild: wild-type PETase of I. sakaiensis, SEQ ID NO: 3 (protein)
chain: HMQTNPYARGPNPTAASLEASAGPFTVRSFTVSRPSGYGAGTVYYPTNAGGTVGAIAIVPGYTARQSSIKWWGPRLASHGFVVITIDTNSTLDQPSSRSSQQMAALRQVASLNGTSSSPIYGKVDTARMGVMGWSMGGGGSLISAANNPSLKAAAPQAPWDSSTNFSSVTVPTLIFACENDSIAPVNSSALPIYDSMSRNAKQFLEINGGSHSCANSGNSNQALIGKKGVAWMKRFMDNDTRYSTFACENPNSTRVSDFRTANCSLE
modifications: IsMHETase_wt
For B1, the “sum of TPA, MHET and BHET” value in data set [3] is “(0.3 mM”.

Source of the values: US12559776B2, “Chemical and biological integrated degradation process for polyethylene terephthalate (PET), for recycling pet” (Korea University Research and Business Foundation, priority 2021, dated 2026).
